According to US11214803B2, “Modulators of YAP1 expression” (Ionis Pharmaceuticals, Inc., priority 2019, dated 2022):
Strand notation (5' to 3'): a small letter for the sugar, then the base; units joined by * are phosphorothioate-linked, units joined directly phosphodiester-linked; [ ] holds rarer units or linkages, { } end groups; capitals alone tell only the bases. k = constrained ethyl (cEt); [5mC] = 5-methylcytosine; d = 2'-deoxy (DNA)

System: Yap1 mRNA
Experiment: Antisense inhibition of human Yap1 in A-431 cells by cEt gapmers, single dose (Example 3, RTS36584)
Assay type: cell-based
Outline: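 A-431 cells (5,000/well) took up the 3-10-3 cEt gapmers by free uptake at 2,000 nM for about 48 h. Yap1 mRNA was measured by RT-qPCR with primer probe set RTS36584, normalized to RiboGreen total RNA, and given as % of untreated control.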

[1] = Table 26, Yap1 mRNA by 3-10-3 cEt gapmers targeting SEQ ID NO.: 1, and 2, percent of untreated control
[2] = Table 9, A-431 cells, 5,000 cells per well, free uptake, 2,000 nM, approximately 48 hours, RTS36584, normalized to RIBOGREEN, Yap1 mRNA relative to untreated control cells
[3] = Table 11, A-431 cells, 5,000 cells per well, free uptake, 2,000 nM oligonucleotide, approx. 48 hours, primer probe set RTS36584, Yap1 mRNA normalized to RIBOGREEN, percent of untreated control
[4] = Table 10, A-431 cells, 5,000 cells per well, free uptake, 2,000 nM oligonucleotide, approx. 48 hours, primer probe set RTS36584, Yap1 mRNA normalized to RIBOGREEN, percent of untreated control
[5] = Table 13, A-431 cells, 5,000 cells per well, free uptake, 2,000 nM modified oligonucleotide, approx. 48 hours, RTS36584, normalized to RIBOGREEN, Yap1 mRNA relative to untreated control cells
[6] = Table 34, Yap1 mRNA as percent of untreated control, 3-10-3 cEt gapmers targeting SEQ ID NO: 1 and 2, single dose
[7] = Table 12, A-431 cells, 5,000 cells per well, free uptake, 2,000 nM modified oligonucleotide, approx. 48 hours, RTS36584, normalized to RIBOGREEN, Yap1 mRNA relative to untreated control cells
[8] = Table 8, A-431 cells, 5,000 cells per well, free uptake, 2,000 nM, approximately 48 hours, RTS36584, normalized to RIBOGREEN, Yap1 mRNA relative to untreated control cells
[9] = Table 28, Yap1 mRNA as percent of untreated control, 3-10-3 cEt gapmers targeting SEQ ID NO.: 1, and 2
[10] = Table 35, Yap1 mRNA as percent of untreated control, 3-10-3 cEt gapmers targeting SEQ ID NO: 1 and 2, single dose
[11] = Table 27, Yap1 mRNA by 3-10-3 cEt gapmers targeting SEQ ID NO.: 1, and 2, percent of untreated control
[12] = Table 29, Yap1 mRNA as percent of untreated control, 3-10-3 cEt gapmers targeting SEQ ID NO.: 1, and 2

## 1076236 (kG*kG*kA*dG*dA*dA*d[5mC]*d[5mC]*dT*dT*dA*dT*dT*kT*kA*kT; antisense) [compound 1076236]
[1]
  YAP1 (% UTC): 51 % UTC

## 958456 (antisense kG*kG*k[5mC]*d[5mC]*dA*dG*dA*dG*dA*d[5mC]*dT*dA*d[5mC]*kT*k[5mC]*k[5mC]) [Compound 958456]
[2]
  YAP1 (% UTC): 90 % UTC

## 958591 (kT*k[5mC]*kA*d[5mC]*dA*dG*dT*dA*d[5mC]*dT*dG*d[5mC]*dT*kA*k[5mC]*kA; antisense) [Compound 958591]
[2]
  YAP1 (% UTC): 38 % UTC

## 958528 (kA*kG*kT*d[5mC]*dT*dT*dG*dT*dA*dA*dG*dT*dA*kA*kG*kA; antisense) [Compound 958528]
[3]
  YAP1 (% UTC): 18 % UTC

## 958707 (antisense kT*k[5mC]*kA*dA*dT*dG*d[5mC]*dT*dG*dT*dA*dT*d[5mC]*kA*kG*kA) [Compound 958707]
[4]
  YAP1 (% UTC): 23 % UTC

## 958645 (kG*k[5mC]*k[5mC]*d[5mC]*dA*dT*dA*dG*dT*dT*dG*dA*d[5mC]*kA*kG*kG; antisense) [Compound 958645]
[5]
  YAP1 (% UTC): 54 % UTC

## 1076020 (k[5mC]*k[5mC]*k[5mC]*d[5mC]*dA*dA*d[5mC]*dA*d[5mC]*dT*dA*dA*dT*kA*kG*kG; antisense) [compound 1076020]
[6]
  YAP1 (% UTC): 60 % UTC

## 1075316 (antisense kG*kT*kA*dT*dA*dT*dA*dG*dA*dT*dA*d[5mC]*d[5mC]*k[5mC]*kA*k[5mC]) [compound 1075316]
[6]
  YAP1 (% UTC): 25 % UTC

## 958795 (antisense kT*kA*kT*dT*d[5mC]*d[5mC]*dG*d[5mC]*dA*dT*dT*dG*d[5mC]*k[5mC]*kT*kA) [Compound 958795]
[5]
  YAP1 (% UTC): 8 % UTC

## 958657 (k[5mC]*kA*kG*dT*dA*dT*dA*dA*dT*dA*dT*d[5mC]*d[5mC]*kT*kA*kA; antisense) [Compound 958657]
[4]
  YAP1 (% UTC): 37 % UTC

## 1075628 (antisense k[5mC]*k[5mC]*kG*d[5mC]*dA*dA*dA*dA*dT*dA*dT*dT*dA*kA*kT*kT) [compound 1075628]
[1]
  YAP1 (% UTC): 118 % UTC

## 1074540 (kA*k[5mC]*kT*dA*dT*d[5mC]*d[5mC]*dA*d[5mC]*dA*dG*dT*dA*kA*kT*kA; antisense) [compound 1074540]
[1]
  YAP1 (% UTC): 26 % UTC

## 958489 (kT*kT*k[5mC]*dT*dA*dA*dG*dT*d[5mC]*dT*dG*dA*dG*kT*kA*kT; antisense) [Compound 958489]
[7]
  YAP1 (% UTC): 14 % UTC

## 958708 (antisense kA*kT*kG*dT*d[5mC]*dA*dG*dA*dT*dG*dT*d[5mC]*dA*kA*kT*kT) [Compound 958708]
[3]
  YAP1 (% UTC): 19 % UTC

## 958685 (antisense kA*kG*k[5mC]*dT*dA*dT*dG*dG*dA*dA*dA*dG*dT*kG*kT*k[5mC]) [Compound 958685]
[5]
  YAP1 (% UTC): 24 % UTC

## 958398 (antisense kG*k[5mC]*kA*dG*dG*d[5mC]*dT*dA*dT*dT*dA*dA*dG*k[5mC]*kT*kG) [Compound 958398]
[8]
  YAP1 (% UTC): 76 % UTC

## 1075404 (antisense kA*kT*kA*dT*dA*dA*d[5mC]*d[5mC]*dT*dG*dA*dA*d[5mC]*kT*kA*kA) [compound 1075404]
[1]
  YAP1 (% UTC): 102 % UTC

## 958529 (k[5mC]*kA*kA*dG*dT*d[5mC]*dT*dT*dG*dT*dA*dA*dG*kT*kA*kA; antisense) [Compound 958529]
[7]
  YAP1 (% UTC): 3 % UTC

## 1074764 (kA*kT*kG*d[5mC]*dT*dA*d[5mC]*d[5mC]*d[5mC]*dA*dA*dT*dA*k[5mC]*kA*kA; antisense) [compound 1074764]
[1]
  YAP1 (% UTC): 18 % UTC

## 1075758 (kG*kT*kA*dA*dT*dT*dT*dA*dA*dT*dA*dG*dA*k[5mC]*kT*kA; antisense) [compound 1075758]
[9]
  YAP1 (% UTC): 73 % UTC

## 1074516 (kT*kT*kA*dA*d[5mC]*dT*dG*dG*dA*dA*dA*dG*d[5mC]*kA*kG*kG; antisense) [compound 1074516]
[6]
  YAP1 (% UTC): 22 % UTC

## 1074325 (antisense k[5mC]*kG*k[5mC]*dA*dG*dG*dG*d[5mC]*dT*dA*dA*d[5mC]*dT*k[5mC]*k[5mC]*kT) [compound 1074325]
[10]
  YAP1 (% UTC): 42 % UTC

## 958417 (antisense kA*k[5mC]*kG*dG*dA*dT*dA*dA*dA*dA*dA*dT*dT*kA*k[5mC]*kT) [Compound 958417]
[8]
  YAP1 (% UTC): 85 % UTC

## 958356 (antisense kT*kT*kG*dA*dA*dG*dA*dA*dG*dG*dA*dG*dT*k[5mC]*kG*kG) [Compound 958356]
[8]
  YAP1 (% UTC): 9 % UTC

## 1075981 (kA*kA*kG*d[5mC]*dA*dA*dT*dA*dT*d[5mC]*d[5mC]*dT*dA*k[5mC]*kA*k[5mC]; antisense) [compound 1075981]
[11]
  YAP1 (% UTC): 40 % UTC

## 958818 (kG*kT*kT*dG*dT*d[5mC]*dA*dA*d[5mC]*dT*d[5mC]*dT*dA*kG*kG*kG; antisense) [Compound 958818]
[3]
  YAP1 (% UTC): 23 % UTC

## 958522 (kA*kA*kT*dT*dA*dG*dT*d[5mC]*d[5mC]*dA*dA*dG*dG*kG*kA*kG; antisense) [Compound 958522]
[4]
  YAP1 (% UTC): 32 % UTC

## 958819 (kT*kG*k[5mC]*dT*dT*d[5mC]*dA*dA*d[5mC]*dA*dT*dT*dG*kT*kT*k[5mC]; antisense) [Compound 958819]
[7]
  YAP1 (% UTC): 9 % UTC

## 1075213 (kA*k[5mC]*kA*dA*dT*dA*dA*dA*dG*dG*dG*dT*d[5mC]*k[5mC]*kT*kA; antisense) [compound 1075213]
[11]
  YAP1 (% UTC): 33 % UTC

## 958496 (k[5mC]*k[5mC]*kT*dT*dA*dT*dA*dA*dG*d[5mC]*dT*d[5mC]*d[5mC]*kT*kA*kA; antisense) [Compound 958496]
[2]
  YAP1 (% UTC): 3 % UTC

## 1074927 (antisense kT*kA*k[5mC]*dA*dA*d[5mC]*dA*dG*dG*d[5mC]*d[5mC]*dT*dG*k[5mC]*kA*kA) [compound 1074927]
[12]
  YAP1 (% UTC): 74 % UTC

## 1074733 (kG*k[5mC]*k[5mC]*dA*dG*dG*dT*dA*dT*d[5mC]*dA*d[5mC]*dA*kG*kT*kA; antisense) [compound 1074733]
[11]
  YAP1 (% UTC): 47 % UTC

## 1075853 (kG*kA*kG*d[5mC]*dG*dA*dT*dA*dA*dG*d[5mC]*dT*dG*kT*kA*kT; antisense) [compound 1075853]
[11]
  YAP1 (% UTC): 72 % UTC

## 958586 (kG*kG*k[5mC]*dA*dG*d[5mC]*dA*d[5mC]*dG*dG*dT*dG*dT*kA*kA*kG; antisense) [Compound 958586]
[2]
  YAP1 (% UTC): 78 % UTC

## 958481 (antisense kG*k[5mC]*kA*dA*d[5mC]*dT*dG*dG*d[5mC]*dT*dT*dA*dT*kG*kG*kA) [Compound 958481]
[2]
  YAP1 (% UTC): 6 % UTC

## 1074316 (antisense kG*kG*kA*dT*dT*dG*dA*dT*dA*dT*dT*d[5mC]*d[5mC]*kG*k[5mC]*kA) [compound 1074316]
[1]
  YAP1 (% UTC): 33 % UTC

## 1075861 (antisense kT*kA*kA*d[5mC]*dT*dA*dT*dA*dA*dG*d[5mC]*dT*dA*kT*kG*kT) [compound 1075861]
[10]
  YAP1 (% UTC): 78 % UTC

## 958520 (k[5mC]*kT*kA*d[5mC]*d[5mC]*dG*dT*dA*dT*dG*d[5mC]*d[5mC]*d[5mC]*kA*kG*kA; antisense) [Compound 958520]
[5]
  YAP1 (% UTC): 27 % UTC

## 1075596 (antisense kA*kT*kA*dT*dA*dA*dT*dA*d[5mC]*dA*dT*d[5mC]*dT*k[5mC]*k[5mC]*k[5mC]) [compound 1075596]
[1]
  YAP1 (% UTC): 91 % UTC

## 958723 (antisense kA*kA*k[5mC]*d[5mC]*d[5mC]*dA*d[5mC]*dT*dA*dA*dA*dA*d[5mC]*k[5mC]*kG*kG) [Compound 958723]
[3]
  YAP1 (% UTC): 63 % UTC

## 958647 (kT*kA*kG*dG*dA*dA*dG*dT*dT*dG*dT*dT*dG*kA*k[5mC]*k[5mC]; antisense) [Compound 958647]
[4]
  YAP1 (% UTC): 11 % UTC

## 1076014 (kA*kA*kT*d[5mC]*dA*dA*d[5mC]*d[5mC]*dT*dA*dT*dG*dA*kG*kG*kT; antisense) [compound 1076014]
[9]
  YAP1 (% UTC): 98 % UTC

## 958553 (k[5mC]*k[5mC]*kA*dT*dT*dA*dT*dT*dA*d[5mC]*dT*d[5mC]*d[5mC]*kT*kG*kT; antisense) [Compound 958553]
[3]
  YAP1 (% UTC): 1 % UTC

## 1075663 (antisense k[5mC]*kT*kA*dA*dA*dT*dA*dG*dG*dT*dG*dG*dT*kT*kA*kT) [compound 1075663]
[12]
  YAP1 (% UTC): 80 % UTC

## 958696 (antisense kG*k[5mC]*kA*dT*dA*d[5mC]*dT*dA*d[5mC]*dA*d[5mC]*dT*dA*kT*kA*kA) [Compound 958696]
[2]
  YAP1 (% UTC): 56 % UTC
